Test results as given in the supplement of paper PMC10307832.

Key:
Experiment in all cases: relative viability (nuclei count vs DMSO), 5 days (fraction); higher = more cells survive
[1] = compound: C1CNCCC1C2=CC(=NN2)C3=CC=NC=C3 + C[C@@H](Oc1cc(-c2cnn(C3CCNCC3)c2)cnc1N)c1c(Cl)ccc(F)c1Cl [Crizotinib] (partner 1 µM)
How it was run: (§1)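 Medians of duplicate plates are given as relative viability. That measure is the nuclei count in treated wells divided by the count in vehicle wells. Counts were taken on 4× images of lung cancer cell lines in 1536-well plates, 5 days after pin-tool dosing the day after seeding with one drug alone or a fixed anchor-drug dose plus five library-drug doses (not always all listed) in √10 steps.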

[2] = compound: C1CNCCC1C2=CC(=NN2)C3=CC=NC=C3 + C[C@]1(O)C[C@@H](c2nc(-c3ccc4ccc(-c5ccccc5)nc4c3)c3c(N)nccn32)C1 [Linsitinib] (partner 1 µM)
How it was run: as §1

[3] = compound: C1CNCCC1C2=CC(=NN2)C3=CC=NC=C3 + Nc1ncn([C@H]2C[C@H](O)[C@@H](CO)O2)c(=O)n1 [Decitabine] (partner 2 µM)
How it was run: as §1

Tanzisertib + Bortezomib = compound: O[C@H]1CC[C@H](Nc2ncc3nc(Nc4c(F)cc(F)cc4F)n([C@H]4CCOC4)c3n2)CC1 [Tanzisertib] + CC(C)C[C@H](NC(=O)[C@H](Cc1ccccc1)NC(=O)c1cnccn1)B(O)O [Bortezomib] (partner 0.002 µM)
How it was run: as §1

Cell Line | relative viability ([1]; first compound 0.08 µM) | relative viability ([1]; first compound 0.8 µM) | relative viability ([1]; first compound 2.53 µM) | relative viability ([1]; first compound 8 µM) | relative viability ([2]; first compound 0.08 µM) | relative viability ([2]; first compound 0.8 µM) | relative viability ([2]; first compound 2.53 µM) | relative viability ([2]; first compound 8 µM) | relative viability ([3]; first compound 0.08 µM) | relative viability ([3]; first compound 0.8 µM) | relative viability ([3]; first compound 2.53 µM) | relative viability ([3]; first compound 8 µM) | relative viability (Tanzisertib + Bortezomib; first compound 0.08 µM) | relative viability (Tanzisertib + Bortezomib; first compound 0.253 µM) | relative viability (Tanzisertib + Bortezomib; first compound 0.8 µM) | relative viability (Tanzisertib + Bortezomib; first compound 2.53 µM) | relative viability (Tanzisertib + Bortezomib; first compound 8 µM)
NCI-H2347 | 0.681 | 0.676 | 0.939 | 0.781 | 0.916 | 0.961 | 1.06 | 0.936 | 0.63 | 0.621 | 0.658 | 0.567 | 0.737 | 0.837 | 1.27 | 1.29 | 0.628
NCI-H2405 | 0.87 | 0.777 | 0.873 | 0.825 | 0.979 | 0.771 | 1.07 | 0.913 | 0.705 | 0.735 | 0.793 | 0.753 | 1.03 | 1.02 | 1.07 | 0.975 | 0.794
NCI-H3122 | 0.303 | 0.265 | 0.255 | 0.283 | 0.981 | 0.981 | 1.06 | 1.04 | 0.421 | 0.453 | 0.417 | 0.521 | 1.06 | 1.02 | 1.04 | 1.03 | 1.01
PC-3 [JPC-3] | 0.941 | 1.07 | 0.971 | 0.953 | 0.913 | 0.975 | 0.936 | 0.896 | 0.881 | 0.77 | 0.963 | 0.895 | 0.875 | 0.931 | 0.847 | 0.739 | 0.716
PC-14 | 0.917 | 0.874 | 1.04 | 0.835 | 0.997 | 0.992 | 1.03 | 0.941 | 0.22 | 0.19 | 0.268 | 0.265 | 1.05 | 0.878 | 0.879 | 1.01 | 0.585
RERF-LC-KJ | 0.872 | 0.894 | 0.912 | 0.759 | 0.925 | 0.931 | 0.903 | 0.903 | 0.692 | 0.689 | 0.766 | 0.668 | 1.17 | 1.01 | 1.04 | 1.07 | 1.02
SK-LU-1 | 1.03 | 0.936 | 0.989 | 0.947 | 1.05 | 1.07 | 1.19 | 1.23 | 0.571 | 0.646 | 0.674 | 0.638 | 1.07 | 1.19 | 1.3 | 1.18 | 0.493
SW 1573 | 0.805 | 0.713 | 0.993 | 0.795 | 0.815 | 0.786 | 0.902 | 0.952 |  | 0.471 | 0.711 | 0.76 | 1.09 | 1.09 | 0.946 | 1.15 | 0.712
